From patent publication US20020049205A1, “Pyrazole antimicrobial agents” (priority 2000, published 2002)

Columns and labels:
[1] = target: T1, Sigma^70 saturated E. coli RNA Polymerase (Escherichia coli, UniProt P0A7Z4+P0A800+P0A8T7+P0A8V2); assay: IC50 assay, inhibition of RNA polymerase; type: biochemical; conditions: Table 1, compounds of Formula 1
T1 construct: purchased Epicenter
Experimental: One common assay involves evaluation of the compounds as RNA polymerase inhibitors. In this assay, buffer (250 mM KCl, 5% glycerol, 10 mM MgCl2, 0.1 mg/ml BSA) is combined with 6 mM β-M.E., PT5 DNA template, and 1.3 μg/rxn Sigma^70 saturated E. coli RNA Polymerase (Epicenter). The compound is then added in a manner not to exceed 5% DMSO. Nucleotide triphosphates are then added at the following concentration: 250 μM ATP, CTP and UTP with 100 μM cold CTP and 50 μM α-^32P CTP. The mixture is incubated for 10 min at about 37° C. A [2×] loading buffer is added and the mixture is then run on a 6% urea denaturing PAGE until bromophenol blue reaches the edge of plate. The gel is soaked (about 20 minutes in 10% MeOH and 10% acetic acid, to remove urea), then dried (about 55 minutes at about 85° C. (BioRad Gel Drier)) and exposed to a Phospho Imaging Plate for 1 hour. The plate is then read on a Fujix Bas1000 Imaging System and quantified using MacBas v2.0 software. An IC50 (in μM) can be calculated as the concentration of a drug which reduces the enzyme activity to 50% of the control.
In this assay, buffer (250 mM KCl, 5% Glycerol, 10 mM MgCl2, 0.1 mg/ml bovine serum albumin (BSA)) is combined with 6 mM β-mercaptoethanol, PT5 DNA template, and 1.3 μg/rxn Sigma^70 saturated E. coli RNA Polymerase (obtained from Epicenter). The compound is then added in a manner not to exceed 5% DMSO. Nucleotide triphosphates are then added at the following concentration: 250 μM ATP, CTP and UTP with 100 μM cold CTP and 50 μM α-32P CTP. The mixture is incubated for 10 min at about 37° C. A [2×] loading buffer is added and the mixture is then run on a 6% urea denaturing PAGE until bromophenol blue reaches the edge of plate. The gel is soaked (about 20 minutes in 10% MeOH and 10% acetic acid, to remove urea), then dried (about 55 minutes at about 85° C. (BioRad Gel Drier)) and exposed to a Phospho Imaging Plate for 1 hour. The plate is then read on a Fujix Bas1000 Imaging System and quantified using MacBas v2.0 software. An IC50 (in μM) can be calculated as the concentration of a compound of the invention that reduces the enzyme activity to 50% of the control. For the sake of clarity, the above-described assay is used to determine the IC50 values referenced in the claims. However, the skilled artisan will recognize that other methods can be used to determine an IC50 value.

B. su = assay: Minimum Inhibitory Concentration assay, B. su; type: cell-based; conditions: LB medium, 16 hours, 37° C.; Table 1
Experimental: (§1) For Minimum Inhibitory Concentration (MIC) determinations for selected bacteria, log phase growing bacteria are re-suspended at 1×10^5 bacteria per mL in LB medium. The compound is added and two-fold dilutions are made. The final volume in the 96-well plate is about 100 μL. The plate is incubated at 37° C. in the dark with shaking. After 16 hours of incubation, growth is monitored by reading A600 or by visual inspection. MIC is defined as the minimum concentration of drug resulting in inhibition of visible growth of bacterial under the conditions described (above) in National Committee for Clinical Laboratory Standards 1993. Methods for dilution antimicrobial susceptibility tests for bacteria that grow aerobically. Approved standard M7-A3; National Committee for Clinical Laboratory Standards: Villanova, Pa.
as §1, with “MIC” for “Minimum Inhibitory Concentration (MIC)”

S. au = assay: Minimum Inhibitory Concentration assay, S. au; type: cell-based; conditions: LB medium, 16 hours, 37° C.; Table 1
Experimental: as §1
as §1, with “MIC” for “Minimum Inhibitory Concentration (MIC)”

E.c(tolC) = assay: Minimum Inhibitory Concentration assay, E.c(tolC); type: cell-based; conditions: 16 h, read-out: MIC (μM) E.c(tolC)
Experimental: as §1
as §1, with “MIC” for “Minimum Inhibitory Concentration (MIC)”

T1 sequence (P0A8V2 whole entry): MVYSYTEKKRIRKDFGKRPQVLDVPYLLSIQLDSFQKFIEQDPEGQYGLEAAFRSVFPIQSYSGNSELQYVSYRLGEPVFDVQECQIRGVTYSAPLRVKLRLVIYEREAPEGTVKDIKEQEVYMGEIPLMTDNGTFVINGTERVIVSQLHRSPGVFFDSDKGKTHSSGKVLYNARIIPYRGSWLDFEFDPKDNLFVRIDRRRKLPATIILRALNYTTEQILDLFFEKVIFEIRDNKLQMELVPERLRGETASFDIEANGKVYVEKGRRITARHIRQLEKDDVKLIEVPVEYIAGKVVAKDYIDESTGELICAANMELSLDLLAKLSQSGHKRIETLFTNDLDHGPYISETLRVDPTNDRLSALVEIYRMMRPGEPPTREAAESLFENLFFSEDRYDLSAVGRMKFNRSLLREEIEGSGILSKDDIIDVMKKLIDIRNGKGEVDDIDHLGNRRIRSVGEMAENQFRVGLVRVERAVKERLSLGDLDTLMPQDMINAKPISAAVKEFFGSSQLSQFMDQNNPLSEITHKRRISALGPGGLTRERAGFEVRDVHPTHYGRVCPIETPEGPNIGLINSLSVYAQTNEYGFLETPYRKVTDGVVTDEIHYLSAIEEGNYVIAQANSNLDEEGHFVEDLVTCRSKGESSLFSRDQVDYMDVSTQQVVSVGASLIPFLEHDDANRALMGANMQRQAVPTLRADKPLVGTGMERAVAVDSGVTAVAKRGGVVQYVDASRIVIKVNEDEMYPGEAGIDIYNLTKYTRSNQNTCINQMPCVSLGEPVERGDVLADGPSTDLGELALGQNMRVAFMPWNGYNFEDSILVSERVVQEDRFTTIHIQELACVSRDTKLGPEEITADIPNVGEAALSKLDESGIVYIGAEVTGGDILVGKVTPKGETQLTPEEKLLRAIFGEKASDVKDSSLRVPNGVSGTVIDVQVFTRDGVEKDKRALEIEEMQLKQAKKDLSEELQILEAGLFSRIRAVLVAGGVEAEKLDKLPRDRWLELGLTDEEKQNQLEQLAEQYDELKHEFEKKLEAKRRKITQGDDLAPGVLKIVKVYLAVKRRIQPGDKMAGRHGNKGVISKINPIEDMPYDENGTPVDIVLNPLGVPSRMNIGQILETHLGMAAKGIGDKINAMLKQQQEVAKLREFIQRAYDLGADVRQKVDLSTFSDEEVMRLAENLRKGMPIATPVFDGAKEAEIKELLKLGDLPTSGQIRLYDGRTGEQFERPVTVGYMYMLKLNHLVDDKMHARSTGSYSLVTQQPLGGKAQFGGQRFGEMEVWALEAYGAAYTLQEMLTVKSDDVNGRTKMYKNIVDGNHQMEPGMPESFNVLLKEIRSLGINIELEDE
T1 sequence (P0A8T7 whole entry): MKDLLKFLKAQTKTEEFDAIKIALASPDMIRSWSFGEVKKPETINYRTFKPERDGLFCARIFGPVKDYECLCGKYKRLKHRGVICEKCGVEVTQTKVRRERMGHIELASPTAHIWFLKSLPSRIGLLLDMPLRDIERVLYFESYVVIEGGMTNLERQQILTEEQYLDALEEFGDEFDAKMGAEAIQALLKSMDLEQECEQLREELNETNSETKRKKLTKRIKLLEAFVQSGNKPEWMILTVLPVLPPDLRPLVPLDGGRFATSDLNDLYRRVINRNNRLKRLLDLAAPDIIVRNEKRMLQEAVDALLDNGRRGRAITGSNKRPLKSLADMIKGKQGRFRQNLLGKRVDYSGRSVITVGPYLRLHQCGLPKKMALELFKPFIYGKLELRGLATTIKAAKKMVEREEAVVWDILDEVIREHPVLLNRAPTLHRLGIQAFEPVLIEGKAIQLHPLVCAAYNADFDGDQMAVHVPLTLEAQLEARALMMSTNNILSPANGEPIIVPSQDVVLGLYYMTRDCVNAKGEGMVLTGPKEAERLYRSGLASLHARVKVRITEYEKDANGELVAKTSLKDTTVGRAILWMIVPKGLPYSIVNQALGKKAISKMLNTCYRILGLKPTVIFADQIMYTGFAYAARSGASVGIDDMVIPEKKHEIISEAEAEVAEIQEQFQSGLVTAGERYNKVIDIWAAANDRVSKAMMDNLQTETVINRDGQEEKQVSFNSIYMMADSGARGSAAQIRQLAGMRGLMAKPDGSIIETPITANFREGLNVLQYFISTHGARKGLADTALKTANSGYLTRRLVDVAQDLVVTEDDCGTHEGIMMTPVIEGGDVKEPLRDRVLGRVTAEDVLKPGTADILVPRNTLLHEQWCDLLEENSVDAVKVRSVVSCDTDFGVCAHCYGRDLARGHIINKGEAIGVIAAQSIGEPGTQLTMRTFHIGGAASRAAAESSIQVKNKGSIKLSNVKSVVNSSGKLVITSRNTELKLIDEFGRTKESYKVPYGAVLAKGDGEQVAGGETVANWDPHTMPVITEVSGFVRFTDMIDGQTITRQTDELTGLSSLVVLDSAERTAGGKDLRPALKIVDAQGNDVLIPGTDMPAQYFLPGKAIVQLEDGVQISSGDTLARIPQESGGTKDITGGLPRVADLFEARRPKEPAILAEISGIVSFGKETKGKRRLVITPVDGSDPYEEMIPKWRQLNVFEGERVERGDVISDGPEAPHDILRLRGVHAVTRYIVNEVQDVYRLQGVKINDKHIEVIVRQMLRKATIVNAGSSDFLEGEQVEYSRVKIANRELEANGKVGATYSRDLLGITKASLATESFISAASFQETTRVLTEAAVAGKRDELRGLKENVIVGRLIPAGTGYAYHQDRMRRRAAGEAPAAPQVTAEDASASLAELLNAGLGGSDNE
T1 sequence (P0A7Z4 whole entry): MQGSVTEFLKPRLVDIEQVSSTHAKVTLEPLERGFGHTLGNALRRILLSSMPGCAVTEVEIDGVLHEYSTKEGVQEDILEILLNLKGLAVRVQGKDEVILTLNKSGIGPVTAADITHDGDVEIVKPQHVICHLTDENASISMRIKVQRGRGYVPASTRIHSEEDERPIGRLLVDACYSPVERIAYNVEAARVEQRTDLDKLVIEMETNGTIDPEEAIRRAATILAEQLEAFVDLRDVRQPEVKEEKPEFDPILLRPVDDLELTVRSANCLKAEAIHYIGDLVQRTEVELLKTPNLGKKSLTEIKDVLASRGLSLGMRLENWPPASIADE
T1 sequence (P0A800 whole entry): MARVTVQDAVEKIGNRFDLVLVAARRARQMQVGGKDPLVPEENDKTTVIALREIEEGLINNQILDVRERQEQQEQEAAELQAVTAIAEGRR

What does the source list for `Fc1ccc(-c2n[nH]cc2-c2ccc(NCCN3CCNCC3)c(C(F)(F)F)c2)cc1` [Example 20]?
IC50 [1]: < 500 µM; MIC (B. su): < 500 µM; MIC (S. au): < 500 µM; MIC (E.c(tolC)): < 500 µM

How did the IC50 [1] turn out when `Fc1ccc(-c2n[nH]cc2-c2ccc(NCCNCc3ccccc3)c(C(F)(F)F)c2)cc1` [Example 21] was run?
The IC50 was less than 500 µM.

What about the MIC (B. su) of the same compound?
The MIC was less than 500 µM.

What about the MIC (S. au) of the same compound?
Its MIC is less than 500 µM.

What about the MIC (E.c(tolC)) of the same compound?
Its MIC is less than 500 µM.

What does the source list for `NS(=O)(=O)c1ccc(CCNc2ccc(-c3c[nH]nc3-c3ccc(F)cc3)cc2C(F)(F)F)cc1` [Example 22]?
IC50 [1]: < 500 µM; MIC (B. su): < 500 µM; MIC (S. au): < 500 µM; MIC (E.c(tolC)): < 500 µM

Which IC50 [1] does the source give for `CS(=O)(=O)Nc1ccc(CCNc2ccc(-c3c[nH]nc3-c3ccc(F)cc3)cc2C(F)(F)F)cc1` [Example 23] here?
The IC50 was greater than 500 µM.

And the MIC (B. su)?
Its MIC is greater than 500 µM.

What about the MIC (S. au) of the same compound?
The MIC was greater than 500 µM.

And the MIC (E.c(tolC))?
The MIC was greater than 500 µM.

What does the source list for `NC1CCN(c2ccc(-c3c[nH]nc3-c3ccc(F)cc3)cc2C(F)(F)F)C1` (centres unmarked) [Example 24]?
IC50 [1]: < 500 µM; MIC (B. su): < 500 µM; MIC (S. au): < 500 µM; MIC (E.c(tolC)): < 500 µM

With `O=C(Nc1ccc(Cl)c(C(F)(F)F)c1)NC1CCN(c2ccc(-c3c[nH]nc3-c3ccc(F)cc3)cc2C(F)(F)F)C1` (centres unmarked) [Example 25] as the compound, how does the IC50 [1] read?
The IC50 was less than 500 µM.

What about the MIC (B. su) of the same compound?
The MIC was less than 500 µM.

And the MIC (S. au)?
Its MIC is less than 500 µM.

What about the MIC (E.c(tolC)) of the same compound?
Its MIC is greater than 500 µM.

Which IC50 [1] does the source give for `Fc1ccc(-c2n[nH]cc2-c2cc(F)cc(C(F)(F)F)c2)cc1` [Example 26] here?
The IC50 was less than 500 µM.

What about the MIC (B. su) of the same compound?
Its MIC is less than 500 µM.

And the MIC (S. au)?
Its MIC is less than 500 µM.

What about the MIC (E.c(tolC)) of the same compound?
Its MIC is less than 500 µM.

Which results are given for `NCCNc1cc(-c2c[nH]nc2-c2ccc(F)cc2)cc(C(F)(F)F)c1` [Example 27]?
IC50 [1]: < 500 µM; MIC (B. su): < 500 µM; MIC (S. au): < 500 µM; MIC (E.c(tolC)): < 500 µM

How did the IC50 [1] turn out when `O=C(NCCNc1cc(-c2c[nH]nc2-c2ccc(F)cc2)cc(C(F)(F)F)c1)c1ccccc1` [Example 28] was run?
The IC50 was greater than 500 µM.

And the MIC (B. su)?
The MIC was less than 500 µM.

And the MIC (S. au)?
Its MIC is less than 500 µM.

What about the MIC (E.c(tolC)) of the same compound?
Its MIC is less than 500 µM.

How did the IC50 [1] turn out when `O=C(NCCNc1cc(-c2c[nH]nc2-c2ccc(F)cc2)cc(C(F)(F)F)c1)Nc1ccc(Cl)c(C(F)(F)F)c1` [Example 29] was run?
The IC50 was less than 500 µM.

What about the MIC (B. su) of the same compound?
The MIC was less than 500 µM.

And the MIC (S. au)?
The MIC was less than 500 µM.

What about the MIC (E.c(tolC)) of the same compound?
The MIC was greater than 500 µM.

How did the IC50 [1] turn out when `NCCCNc1cc(-c2c[nH]nc2-c2ccc(F)cc2)cc(C(F)(F)F)c1` [Example 30] was run?
The IC50 was greater than 500 µM.

What about the MIC (B. su) of the same compound?
Its MIC is less than 500 µM.

What about the MIC (S. au) of the same compound?
Its MIC is less than 500 µM.

What about the MIC (E.c(tolC)) of the same compound?
Its MIC is less than 500 µM.

With `O=C(NCCCNc1cc(-c2c[nH]nc2-c2ccc(F)cc2)cc(C(F)(F)F)c1)Nc1ccc(Cl)c(C(F)(F)F)c1` [Example 31] as the compound, how does the IC50 [1] read?
The IC50 was less than 500 µM.

What about the MIC (B. su) of the same compound?
The MIC was less than 500 µM.

What about the MIC (S. au) of the same compound?
Its MIC is less than 500 µM.

And the MIC (E.c(tolC))?
The MIC was greater than 500 µM.

How did the IC50 [1] turn out when `O=[N+]([O-])c1cccc(-c2c[nH]nc2-c2ccc(F)c(C(F)(F)F)c2)c1` [Example 32] was run?
Its IC50 is less than 500 µM.

And the MIC (B. su)?
The MIC was less than 500 µM.

And the MIC (S. au)?
The MIC was less than 500 µM.

And the MIC (E.c(tolC))?
Its MIC is greater than 500 µM.

What does the source list for `O=[N+]([O-])c1cccc(-c2c[nH]nc2-c2ccc(N3CCCCC3)c(C(F)(F)F)c2)c1` [Example 33]?
IC50 [1]: < 500 µM; MIC (B. su): < 500 µM; MIC (S. au): < 500 µM; MIC (E.c(tolC)): > 500 µM

For `Nc1cccc(-c2c[nH]nc2-c2ccc(F)c(C(F)(F)F)c2)c1` [Example 34], which IC50 [1] is on record?
Its IC50 is less than 500 µM.

And the MIC (B. su)?
The MIC was less than 500 µM.

And the MIC (S. au)?
Its MIC is less than 500 µM.

And the MIC (E.c(tolC))?
Its MIC is less than 500 µM.

How did the IC50 [1] turn out when `O=C(COc1ccccc1)Nc1cccc(-c2c[nH]nc2-c2ccc(F)c(C(F)(F)F)c2)c1` [Example 35] was run?
Its IC50 is less than 500 µM.

What about the MIC (B. su) of the same compound?
Its MIC is greater than 500 µM.

And the MIC (S. au)?
The MIC was less than 500 µM.

And the MIC (E.c(tolC))?
The MIC was greater than 500 µM.

What does the source list for `CS(=O)(=O)Nc1cccc(-c2c[nH]nc2-c2ccc(F)c(C(F)(F)F)c2)c1` [Example 36]?
IC50 [1]: < 500 µM; MIC (B. su): < 500 µM; MIC (S. au): < 500 µM; MIC (E.c(tolC)): < 500 µM
